Reference: patent US20250043299A1, “POINT MUTATIONS THAT BOOST AROMATIC AMINO ACID PRODUCTION AND CO2 ASSIMILATION IN PLANTS” (Wisconsin Alumni Research Foundation, priority 2021, published 2025)

Columns and labels:
[1] = biological target: T1, Arabidopsis thaliana DHS1 (AtDHS1), wild type (DHS1^WT), SEQ ID NO:1 (Arabidopsis thaliana, UniProt P29976); test: DHS enzyme assay with effector, Arabidopsis DHS1 WT; type: biochemical; conditions: DHS1^WT; 4 mM E4P, 4 mM PEP, pH 7.4, 37° C.
T1 construct: without the predicted plastid transit peptide (amino acid residues; 49-525, 34-507, and 52-527, respectively); made in house; host or cells: E. coli Rosetta-2
Procedure: To generate DHS proteins with individual sota mutations via site-directed mutagenesis, these pET28a plasmid templates were diluted by 500-fold, mixed with 0.04 U/μL Phusion DNA polymerase (Thermo Scientific), 0.2 mM deoxynucleoside triphosphates (dNTPs), 1× Phusion reaction buffer (Thermo Scientific), and 0.5 μM forward and reverse mutagenesis primers (Table 10). The PCR reaction was run using the following protocol: 98° C. for 30 s followed by 20 cycles of 10 s at 98° C., 20 s at 70° C., 4.5 min at 72° C. with a final extension at 72° C. for 10 min. The PCR products were purified using a QIAquick Gel Extraction Kit (QIAGEN), treated with FastDigest DpnI (Thermo Scientific) to digest methylated plasmid template DNA for 20 min at 37° C., and transformed into E. coli cells. The mutagenized pET28a plasmids were sequenced to confirm that no errors were introduced during the mutagenesis process.
The DHS enzyme assays were conducted using the colorimetric method that we recently described (9). Briefly, the enzyme solution (7.7 μl) containing 50 mM Hepes (pH 7.4) was preincubated with an effector molecule(s) at room temperature for 15 min. For assays using recombinant protein and enzyme fractions isolated from plant leaves, 0.01 to 0.1 μg and approximately 50 μg of proteins were used, respectively. After adding 0.5 μl of 0.1 M dithiothreitol, the samples were further incubated at room temperature for 15 min. During these incubations, the substrate solution containing 50 mM Hepes (pH 7.4), 2 mM MnCl2, 4 mM E4P, and 4 mM PEP at final concentration was preheated at 37° C. The enzyme reaction was started by adding 6.8 μl of the substrate solution, then incubated at 37° C. for 30 min, and terminated by adding 30 μl of 0.6 M trichloroacetic acid. After a brief centrifugation, 5 μl of 200 mM NaIO4 (sodium meta-periodate) in 9 N H3PO4 was added to oxidize the enzymatic product and to incubate at 25° C. for 20 min. To stop the oxidation reaction, 20 μl of 0.75 M NaAsO2 (sodium arsenite), which was dissolved in 0.5 M Na2SO4 and 0.05 M H2SO4, was added and immediately mixed. […]

[2] = system: sota mutant DHS enzymes; test: DHS enzyme assay, sota mutant enzymes compared with corresponding WT enzymes; type: biochemical, Arabidopsis thaliana
Procedure: To generate recombinant DHS proteins the pET28a vectors carrying the A. thaliana DHS1 (AtDHS1), AtDHS2, or AtDHS3 WT sequence without the predicted plastid transit peptide (amino acid residues; 49-525, 34-507, and 52-527, respectively) were expressed in E. coli Rosetta-2 cells and purified using Ni-affinity chromatography, exactly as was conducted previously (9). To generate DHS proteins with individual sota mutations via site-directed mutagenesis, these pET28a plasmid templates were diluted by 500-fold, mixed with 0.04 U/μL Phusion DNA polymerase (Thermo Scientific), 0.2 mM deoxynucleoside triphosphates (dNTPs), 1× Phusion reaction buffer (Thermo Scientific), and 0.5 μM forward and reverse mutagenesis primers (Table 10). The PCR reaction was run using the following protocol: 98° C. for 30 s followed by 20 cycles of 10 s at 98° C., 20 s at 70° C., 4.5 min at 72° C. with a final extension at 72° C. for 10 min. […]
The DHS enzyme assays were conducted using the colorimetric method that we recently described (9). […] The absorbance of the pink supernatant was read at 549 nm with the microplate reader (Infinite 200 PRO, TECAN) to calculate DAHP production with the molar extinction coefficient at 549 nm (ε=549 nm) of 4.5×10^4 M^−1 cm^−1. […]

[3] = biological target: T2, DHS1^WT (Arabidopsis thaliana, UniProt P29976); conditions: AAAs, chorismate, caffeate: from Yokoyama et al., Plant Cell, 2021; cited from earlier work
T2 construct: without the predicted plastid transit peptide (amino acid residues; 49-525, 34-507, and 52-527, respectively); made in house; host or cells: E. coli Rosetta-2

[4] = biological target: T3, Arabidopsis thaliana DHS2 (AtDHS2), wild type (DHS2^WT), SEQ ID NO:2 (Arabidopsis thaliana, UniProt Q00218); conditions: reference 9; cited from earlier work
T3 construct: without the predicted plastid transit peptide (amino acid residues; 49-525, 34-507, and 52-527, respectively); made in house; host or cells: E. coli Rosetta-2
T3 sequence (Q00218 34-507): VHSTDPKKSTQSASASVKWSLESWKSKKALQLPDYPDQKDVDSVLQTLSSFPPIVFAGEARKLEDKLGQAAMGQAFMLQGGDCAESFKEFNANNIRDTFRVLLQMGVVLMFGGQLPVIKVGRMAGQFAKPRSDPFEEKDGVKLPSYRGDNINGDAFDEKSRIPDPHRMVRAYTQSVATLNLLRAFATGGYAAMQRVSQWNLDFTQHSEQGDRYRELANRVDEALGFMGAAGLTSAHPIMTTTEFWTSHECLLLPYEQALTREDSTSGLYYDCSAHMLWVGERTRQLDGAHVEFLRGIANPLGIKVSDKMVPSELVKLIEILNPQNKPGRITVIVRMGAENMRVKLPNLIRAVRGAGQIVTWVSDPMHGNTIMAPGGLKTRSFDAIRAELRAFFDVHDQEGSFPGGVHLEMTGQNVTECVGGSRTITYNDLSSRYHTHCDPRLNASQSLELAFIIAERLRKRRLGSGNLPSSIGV

T1 sequence (P29976 49-525): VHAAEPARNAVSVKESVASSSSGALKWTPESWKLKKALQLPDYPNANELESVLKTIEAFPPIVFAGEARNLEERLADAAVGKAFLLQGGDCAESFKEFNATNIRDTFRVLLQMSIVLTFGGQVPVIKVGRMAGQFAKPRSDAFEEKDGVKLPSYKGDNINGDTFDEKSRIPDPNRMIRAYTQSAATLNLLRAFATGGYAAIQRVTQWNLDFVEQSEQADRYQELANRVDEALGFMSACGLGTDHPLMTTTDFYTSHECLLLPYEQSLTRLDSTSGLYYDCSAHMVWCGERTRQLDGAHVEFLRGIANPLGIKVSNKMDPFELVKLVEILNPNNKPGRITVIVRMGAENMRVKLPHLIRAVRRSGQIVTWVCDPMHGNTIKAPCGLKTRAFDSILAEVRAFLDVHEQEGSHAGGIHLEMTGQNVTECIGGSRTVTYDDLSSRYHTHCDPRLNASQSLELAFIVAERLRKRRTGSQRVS
T2 sequence (P29976 49-525): as above

SMILES | IC50 [1] | increase of IC50 in sota mutant enzymes over corresponding WT enzymes [2] | IC50 of effector molecule on DHS1^WT [3] | inhibition of DHS2 [4]
O=C(O)C(=O)Cc1ccc(O)cc1 [HPP, 4-Hydroxyphenylpyruvate] | 305 µM | up to 7 fold | – | –
N[C@@H](Cc1c[nH]c2ccccc12)C(=O)O [Trp, tryptophan] | – | – | Not inhibited | inhibit Arabidopsis DHS2
